ChEMBL document CHEMBL5647688, “Mitogen-activated protein kinase (MEK/ERK) inhibition sensitizes cancer cells to centromere-associated protein E inhibition” (Int J Cancer, 2013)

Assays:
Format in all cases: functional
NB-1691 [1] = assay: Synergistic cytotoxicity against human NB-1691 cells assessed as combination index at ED 50 measured after 72 hrs in presence of concurrent treatment of […] inhibitor CI-1040 by Cell-titer Glo reagent assay
NB-1691 [2] = assay: Synergistic cytotoxicity against human NB-1691 cells assessed as combination index at ED 75 measured after 72 hrs in presence of concurrent treatment of […] inhibitor CI-1040 by Cell-titer Glo reagent assay
Capan-2 = assay: Synergistic cytotoxicity against human Capan-2 cells expressing KRAS mutant assessed as combination index at ED75 measured after 72 hrs in presence of MEK inhibitor GSK1120212 by Cell-titer Glo reagent assay
SK-N-FI [3] = assay: Synergistic cytotoxicity against human SK-N-FI cells assessed as combination index at ED 50 measured after 72 hrs in presence of concurrent treatment of […] inhibitor CI-1040 by Cell-titer Glo reagent assay
NCI-H2170 = assay: Synergistic cytotoxicity against human NCI-H2170 cells assessed as combination index at ED75 measured after 72 hrs in presence of MEK inhibitor GSK1120212 by Cell-titer Glo reagent assay
SK-N-FI [4] = assay: Synergistic cytotoxicity against human SK-N-FI cells assessed as combination index at ED 50 measured after 72 hrs in presence of temozolomide by Cell-titer Glo reagent assay
NCI-H520 = assay: Synergistic cytotoxicity against human NCI-H520 cells assessed as combination index at ED 50 measured after 72 hrs in presence of MEK inhibitor GSK1120212 by Cell-titer Glo reagent assay
NCI-H358 = assay: Synergistic cytotoxicity against human NCI-H358 cells expressing KRAS mutant assessed as combination index at ED75 measured after 72 hrs in presence of MEK inhibitor GSK1120212 by Cell-titer Glo reagent assay
MIA PaCa-2 = assay: Synergistic cytotoxicity against human MIA PaCa-2 cells expressing KRAS mutant assessed as combination index at ED75 measured after 72 hrs in presence of MEK inhibitor GSK1120212 by Cell-titer Glo reagent assay
SK-N-FI [5] = assay: Synergistic cytotoxicity against human SK-N-FI cells assessed as combination index at ED 75 measured after 72 hrs in presence of sequential treatment of […] inhibitor CI-1040 by Cell-titer Glo reagent assay
NCI-H460 = assay: Synergistic cytotoxicity against human NCI-H460 cells expressing KRAS mutant assessed as combination index at ED75 measured after 72 hrs in presence of MEK inhibitor GSK1120212 by Cell-titer Glo reagent assay
SW-620 = assay: Synergistic cytotoxicity against human SW620 cells expressing KRAS mutant assessed as combination index at ED75 measured after 72 hrs in presence of MEK inhibitor GSK1120212 by Cell-titer Glo reagent assay
SK-N-FI [6] = assay: Synergistic cytotoxicity against human SK-N-FI cells assessed as combination index at ED 75 measured after 72 hrs in presence of temozolomide by Cell-titer Glo reagent assay

SMILES: CC(C)Oc1ccc(C(=O)N[C@H](CNC(=O)CN(C)C)Cc2ccc(-c3cn4cccc([C@H](C)O)c4n3)cc2)cc1Cl [GSK-923295A]
- CI (NB-1691 [1]): 0.256
- CI (NB-1691 [2]): 0.308
- CI (Capan-2): 0.153
- CI (SK-N-FI [3]): 0.643
- CI (NCI-H2170): 0.624
- CI (SK-N-FI [4]): 0.837
- CI (NCI-H520): 0.842
- CI (NCI-H358): 0.467
- CI (MIA PaCa-2): 0.311
- CI (SK-N-FI [5]): 0.757
- CI (NCI-H460): 0.294
- CI (SW-620): 0.289
- CI (SK-N-FI [6]): 0.94
